{
  "source": "patent US7842488B2",
  "about": "“Polynucleotides encoding a human 3-phosphoinositide- dependent protein kinase” (Medical Research Council, priority 1997, dated 2010)",
  "molecules": {"B1": {"name": "Myc-D223A-PDK1: catalytically inactive mutant of PDK1, Myc-tagged (protein)", "chain": "MARTTSQLYDAVPIQSSVVLCSCPSPSMVRTQTESSTPPGIPGGSRQGPAMDGTAAEPRPGAGSLQHAQPPPQPRKKRPEDFKFGKILGEGSFSTVVLARELATSREYAIKILEKRHIIKENKVPYVTRERDVMSRLDHPFFVKLYFTFQDDEKLYFGLSYAKNGELLKYIRKIGSFDETCTRFYTAEIVSALEYLHGKGIIHRDLKPENILLNEDMHIQITAFGTAKVLSPESKQARANSFVGTAQYVSPELLTEKSACKSSDLWALGCIIYQLVAGLPPFRAGNEYLIFQKIIKLEYDFPEKFFPKARDLVEKLLVLDATKRLGCEEMEGYGPLKAHPFFESVTWENLHQQTPPKLTAYLPAMSEDDEDCYGNYDNLLSQFGCMQVSSSSSSHSLSASDTGLPQRSGSNIEQYIHDLDSNSFELDLQFSEDEKRLLLEKQAGGNPWHQFVENNLILKMGPVDKRKGLFARRRQLLLTEGPHLYYVDPVNKVLKGEIPWSQELRPEAKNFKTFFVHTPNRTYYLMDPSGNAHKWCRKIQEVWRQRYQSHPDAAVQ", "modifications": "left off: small tags and cut ends"}, "B2": {"name": "Myc-PDK1: Myc-epitope tagged PDK1 transfected into 293 cells (protein)", "chain": "DGTAAEPRPGAGSLQHAQPPPQPRKKRPEDFKFGKILGEGSFSTVVLARELATSREYAIKILEKRHIIKENKVPYVTRERDVMSRLDHPFFVKLYFTFQDDEKLYFGLSYAKNGELLKYIRKIGSFDETCTRFYTAEIVSALEYLHGKGIIHRDLKPENILLNEDMHIQITDFGTAKVLSPESKQARANSFVGTAQYVSPELLTEKSACKSSDLWALGCIIYQLVAGLPPFRAGNEYLIFQKIIKLEYDFPEKFFPKARDLVEKLLVLDATKRLGCEEMEGYGPLKAHPFFESVTWENLHQQTPPKLTAYLPAMSEDDEDCYGNYDNLLSQFGCMQVSSSSSSHSLSASDTGLPQRSGSNIEQYIHDLDSNSFELDLQFSEDEKRLLLEKQAGGNPWHQFVENNLILKMGPVDKRKGLFARRRQLLLTEGPHLYYVDPVNKVLKGEIPWSQELRPEAKNFKTFFVHTPNRTYYLMDPSGNAHKWCRKIQEVWRQRYQSHPDAAVQ", "modifications": "left off: small tags and cut ends"}},
  "key": {"PDK1 [1]": {"test_system": "PDK1", "assay": "PDK1 assay: activation of GST-PKBα by purified PDK1 with phospholipid vesicles", "type": "biochemical, rabbit", "settings": "lipid 10 μM in vesicles of 100 μM PtdCho, 100 μM PtdSer, 30 min at 30° C.", "protocol": "Assay of PDK1. The assay was carried out in two stages; in the first, GST-PKBα was incubated with PDK1 in the presence of MgATP and phospholipid vesicles to permit activation of GST-PKBα.\nAfter 10 min at 30° C., the reactions were terminated by spotting the reaction mixture on to p81 phosphocellulose paper. The papers were washed in phosphoric acid and analysed as described previously. […] The basal GST-PKBα activity is the activity measured in the absence of PDK1."}, "PDK1 [2]": {"test_system": "PDK1", "assay": "Phosphorylation of GST-PKBα by PDK1 with [γ32P]ATP", "type": "biochemical, rabbit", "settings": "lipid 10 μM in PtdCho/PtdSer vesicles", "protocol": "Solutions were stored at 4° C. at concentrations 10-fold higher than those required in the assay and used within 2-4 days.\nPhosphorylation of GST-PKB ? by PDK1. The incubations were identical to the Stage 1 described above except that [γ^32P] ATP (200-400 cpm/pmol) was used instead of unlabelled ATP. The reactions were terminated by making the solution 1% (by mass) in SDS. […] The Coomassie blue-staining bands corresponding to GST-PKBα were excised and the ^32P-radioactivity associated with each band was quantified."}, "GST-PDK1": {"target": "T1, GST-PDK1 (Homo sapiens, UniProt O15530)", "T1 construct": "Residues 52-556 of PDK1 were expressed in human embryonic kidney 293 cells; made in house; host or cells: human embryonic kidney 293 cells (pEBG2T)", "T1 sequence (O15530 52-556)": "B2 chain", "assay": "GST-PDK1 assay: activation and phosphorylation of GST-PKBα", "type": "biochemical", "settings": "lipid 10 μM in PtdCho/PtdSer vesicles", "protocol": "(§1) FIG. 12. […] In panels A and C, the assays were terminated by making the incubations 1% (by vol) in TRITON X-100™ (see Ref 21), and the increase in specific activity of GST-PKBα was determined. In panels B and D, the reactions were terminated by making the solutions 1% in SDS, the samples were subjected to SDS/polyacrylamide gel electrophoresis, and the phosphorylation was assessed by autoradiography of the Coomassie blue-stained band corresponding to GST-PKBα.\n(§2) One unit of PDK1 activity was defined as that amount required to increase the basal activity of GST-PKBα by 1 unit of activity in one min."}, "GST-DSTPK61": {"target": "T2, GST-DSTPK61 (Drosophila melanogaster, UniProt Q9W0V1)", "T2 construct": "residues 1-752 of DSTPK61 in E. coli as fusion proteins; made in house; host or cells: E. coli (pGEX-3X)", "T2 sequence (Q9W0V1 85-836 Q200H/Q201E/Q317A/G443R)": "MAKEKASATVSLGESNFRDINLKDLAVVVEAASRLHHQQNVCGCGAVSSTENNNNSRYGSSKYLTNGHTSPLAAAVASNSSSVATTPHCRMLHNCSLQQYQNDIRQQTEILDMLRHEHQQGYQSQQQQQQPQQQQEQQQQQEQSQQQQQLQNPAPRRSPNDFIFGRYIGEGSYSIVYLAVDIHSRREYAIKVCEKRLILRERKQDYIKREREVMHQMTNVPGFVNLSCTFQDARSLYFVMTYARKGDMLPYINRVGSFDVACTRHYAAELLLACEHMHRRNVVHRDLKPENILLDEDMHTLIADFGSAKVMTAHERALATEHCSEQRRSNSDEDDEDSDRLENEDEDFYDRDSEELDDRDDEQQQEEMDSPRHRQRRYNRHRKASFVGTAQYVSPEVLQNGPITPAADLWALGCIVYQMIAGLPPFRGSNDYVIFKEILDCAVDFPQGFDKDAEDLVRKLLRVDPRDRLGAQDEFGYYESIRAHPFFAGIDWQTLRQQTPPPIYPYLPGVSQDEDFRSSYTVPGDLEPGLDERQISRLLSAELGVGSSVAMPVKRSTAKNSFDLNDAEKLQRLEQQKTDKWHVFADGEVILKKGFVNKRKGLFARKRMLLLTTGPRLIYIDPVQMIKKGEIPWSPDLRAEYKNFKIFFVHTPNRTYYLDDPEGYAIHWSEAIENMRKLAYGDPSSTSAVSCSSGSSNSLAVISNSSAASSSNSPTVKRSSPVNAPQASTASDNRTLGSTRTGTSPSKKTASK", "assay": "GST-DSTPK61 assay: activation and phosphorylation of GST-PKBα", "type": "biochemical", "settings": "lipid 10 μM in PtdCho/PtdSer vesicles", "protocol": "as §1, §2"}, "HA-PKBα [3]": {"test_system": "HA-PKBα", "assay": "HA-PKBα activity in transfected 293 cells", "type": "cell-based, human", "protocol": "FIG. 14. PKBα is activated by cotransfection with PDK1 in 293 cells. (A) 293 cells were transiently transfected with DNA constructs expressing either HA-PKBα or both HA-PKBα and Myc-PDK1. The cells were then stimulated for 10 min with or without 50 ng/ml IGF1, the HA-PKBα immunoprecipitated from the lysates and assayed. The results are expressed relative to the specific activity of wild type HA-PKBα in unstimulated 293 cells ([…]). No PKBα activity was detected in mock transfections in which the cells were transfected with PCMV5 vector alone (data not shown). (B) 6 μg of protein from each lysate was electrophoresed on a 10% SDS/polyacrylamide gel and immunoblotted using either a monoclonal HA-antibody to detect HA-PKBα or a monoclonal Myc-antibody to detect Myc-PDK1. The molecular mass markers are glycogen phosphorylase (97 kDa), bovine serum albumin (67 kDa) and ovalbumin (43 kDa).\nTransfection of 293 cells with HA-tagged PBKα and Myc-PDK1. Human embryonic kidney 293 cells were cultured on 10 cm diameter dishes and transfected with 2 μg/ml pCMV5 DNA constructs encoding for HA-PKBα or HA-PKBα plus Myc-PDK1 [20]. After 24 h the cells were deprived of serum for a further 16 h and then stimulated for 10 min with either […] IGF1 or Buffer. The cells were lysed in 1.0 ml of ice-cold Buffer A, the lysate centrifuged at 4° C. for 10 min at 13,000×g and HA-PKBα immunoprecipitated from aliquots of the supernatant (10 μg protein) and assayed for PKBα with the peptide RPRAATF (SEQ ID NO: 9) as described previously."}, "HA-PKBα [4]": {"test_system": "HA-PKBα", "assay": "32P-labelling of transfected 293 cells: phosphorylation sites of HA-PKBα", "type": "cell-based, human", "settings": "unstimulated 293 cells", "protocol": "FIG. 15. Overexpression of PDK1 in cells induces phosphorylation of PKBα at Thr308. 293 cells transiently transfected with either wild type HA-PKBα (panels A and C) or HA-PKBα and Myc-PDK1 (panels B and D) were incubated with ^32P-orthophosphate, then treated for 10 min without (panels A and B) or with (panels C and D) 50 ng/ml IGF1. The ^32P-labelled HA-PKBα was immunoprecipitated from the lysates, treated with 4-vinylpyridine, and electrophoresed on 1 10% polyacrylamide gel. The HA-PKBα was excised from the gel, digested with trypsin and chromatographed on a C18 column (see legend to FIG. 13) to resolve the four major phosphopeptides which are phosphorylated at Ser-124, Ser473, Thr308 and Thr450 respectively. The identity of each phosphopeptide was established by phospho-amino acid analysis and solid phase sequencing. Similar results were obtained in two separate experiments for (panels A and C), and in three separate experiments (panels B and D).\n^32P-labelling of 293 cells transfected with HA-PKBα or Myc-PDK1. This was carried out essentially as described previously. Briefly, 293 cells were transfected with HA-PKBα, or with HA-PKBα plus Myc-PDK1, washed with phosphate free DMEM, incubated for 4 h with [^32P]-orthophosphate (1 mCi/ml), then stimulated with IGF1 (50 ng/ml) for 5 min. The cells were lysed, and the HA-PKBα immunoprecipitated (using 10 μg of 12CAS antibody per 10 cm dish of cells) or the Myc-PDK1 immunoprecipitated (using 10 μg of 9E10 antibody per 10 cm dish of cells). The immunoprecipitated protein was alkylated with 4-vinylpyridine, subjected to SDS/polyacrylamide gel electrophoresis, digested with trypsin and analysed by chromatography on a C18 column (Alessi et al (1996) EMBO J. 15, 6541-6551)."}},
  "data": [
    {"molecule": "CCCCCCCCCCCCCCCC(=O)OC[C@H](COP(=O)(O)OC1C(O)C(O)C(O)C(OP(=O)(O)O)C1O)OC(=O)CCCCCCCCCCCCCCC", "note": "(stereo partly shown) [Lipid 11, sn-1,2 di-palmitoyl PtdIns-3P]", "values": [
      {"measurement": "activation of PDK1 (in words)", "setting": "PDK1 [1]", "result": "no significant activation"},
      {"measurement": "activation of PDK1 (in words)", "setting": "PDK1 [1]; listed as PtdIns(3)P", "result": "did not activate PDK1 at all"},
      {"measurement": "activation of PDK1 (in words)", "setting": "PDK1 [1]; listed as lipid 11", "result": "did not activate PDK1"},
      {"measurement": "phosphorylation of GST-PKBα by PDK1 (in words)", "setting": "PDK1 [2]", "result": "did not activate PDK1 or induce the phosphorylation"},
      {"measurement": "activation and phosphorylation of GST-PKBα by GST-PDK1 (in words)", "setting": "GST-PDK1", "result": "no activation or phosphorylation"},
      {"measurement": "activation and phosphorylation of GST-PKBα by GST-DSTPK61 (in words)", "setting": "GST-DSTPK61", "result": "no activation or phosphorylation"}
    ]},
    {"molecule": "B1", "values": [
      {"measurement": "activation of HA-PKBα on cotransfection (in words)", "setting": "HA-PKBα [3]; 293 cells", "result": "not activated significantly"}
    ]},
    {"molecule": "B2", "values": [
      {"measurement": "fold increase of HA-PKBα activity on cotransfection", "setting": "HA-PKBα [3]; unstimulated 293 cells", "result": 20, "unit": "fold"},
      {"measurement": "phosphorylation of HA-PKBα at Thr308 relative to IGF1-stimulated cells transfected with HA-PKBα alone", "setting": "HA-PKBα [4]; cotransfection", "result": 70, "unit": "%"},
      {"measurement": "phosphorylation of HA-PKBα at Ser473 on cotransfection (in words)", "setting": "HA-PKBα [4]", "result": "did not induce phosphorylation of HA-PKBα at Ser473"}
    ]}
  ]
}
